For data set [1], the system named is Rattus norvegicus. The data set can be described thus: Hypoglycemic activity in 48 hrs fasted Charles River rat at 150 mg/kg, po measured at 1 hr relative to control. It is filed as functional.
For data set [2], the system named is Rattus norvegicus. Put plainly: Hypoglycemic activity in 48 hrs fasted Charles River rat at 150 mg/kg, po measured at 2 hrs relative to control. It counts as functional.
Data set [3] relates to Rattus norvegicus. Put plainly: Hypoglycemic activity in 48 hrs fasted Charles River rat at 150 mg/kg, po measured at 4 hrs relative to control. It counts as functional.
Data set [4] deals with Rattus norvegicus. The data set can be described thus: Hypoglycemic activity in 48 hrs fasted Charles River rat at 150 mg/kg, po measured at 5 hrs relative to control. It is filed as functional.
The species entered for data set [5] is Rattus norvegicus. Put plainly: Toxicity in rat assessed as mortality measured up to 24 hrs. It is filed as organism-based. The following applies: in vivo.
The species entered for data set [6] is Rattus norvegicus. The data set can be described thus: Toxicity in rat assessed as increase in hepatic triglyceride level measured up to 24 hrs. It is filed as organism-based. The following applies: in vivo.
Data set [7] concerns Rattus norvegicus. The data set can be described thus: Hypoglycemic activity in 48 hrs fasted Charles River rat at 200 mg/kg, po measured at 1 hr relative to control. It is filed as functional.
Data set [8] relates to Rattus norvegicus. The data set can be described thus: Hypoglycemic activity in 48 hrs fasted Charles River rat at 200 mg/kg, po measured at 2 hrs relative to control. It counts as functional.
For data set [9], the system named is Rattus norvegicus. The data set can be described thus: Hypoglycemic activity in 48 hrs fasted Charles River rat at 200 mg/kg, po measured at 4 hrs relative to control. It counts as functional.
The test system of data set [10] is Rattus norvegicus. The data set can be described thus: Hypoglycemic activity in 48 hrs fasted Charles River rat at 50 mg/kg measured at 7 hrs relative to control. It is filed as functional, organism-based. The arrangement: dose 50 mg/kg.
The test system of data set [11] is Rattus norvegicus. The data set can be described thus: Toxicity in rat assessed as increase in hepatic triglyceride level at 50 mg/kg measured after 4 hrs relative to control. Also on record: dose 50 mg/kg. Particulars: in vivo. It counts as organism-based.
Data set [12] relates to Rattus norvegicus. Put plainly: Hypoglycemic activity in 48 hrs fasted Charles River rat at 300 mg/kg, ip measured at 1 hr relative to control. It is filed as functional. The following applies: route intraperitoneal.
For data set [13], the system named is Rattus norvegicus. The data set can be described thus: Hypoglycemic activity in 48 hrs fasted Charles River rat at 300 mg/kg, ip measured at 2 hrs relative to control. Particulars: route intraperitoneal. It is filed as functional.
The subject of data set [14] is Rattus norvegicus. The data set can be described thus: Hypoglycemic activity in 48 hrs fasted Charles River rat at 300 mg/kg, ip measured at 4 hrs relative to control. It is filed as functional. The following applies: route intraperitoneal.
Data set [15] is filed under the species Rattus norvegicus. Put plainly: Toxicity in rat assessed as mortality measured at 6 hrs. The following applies: in vivo. It is filed as organism-based.
Data set [16] deals with Rattus norvegicus. The data set can be described thus: Hypoglycemic activity in 48 hrs fasted Charles River rat at 150 mg/kg, po measured at 7 hrs relative to control. It is filed as functional, organism-based. The arrangement: dose 150 mg/kg.
The test system of data set [17] is Rattus norvegicus. The data set can be described thus: Hypoglycemic activity in 48 hrs fasted Charles River rat at 300 mg/kg, po measured at 1 hr relative to control. It is filed as functional.
In data set [18] the test system is Rattus norvegicus. Put plainly: Hypoglycemic activity in 48 hrs fasted Charles River rat at 300 mg/kg, po measured at 2 hrs relative to control. It counts as functional.
For data set [19], the system named is Rattus norvegicus. Put plainly: Hypoglycemic activity in 48 hrs fasted Charles River rat at 300 mg/kg, po measured at 4 hrs relative to control. It counts as functional.
Data set [20] relates to Rattus norvegicus. Put plainly: Hypoglycemic activity in 48 hrs fasted Charles River rat at 260 mg/kg, po measured at 1 hr relative to control. It is filed as functional.
For data set [21], the system named is Rattus norvegicus. Put plainly: Hypoglycemic activity in 48 hrs fasted Charles River rat at 260 mg/kg, po measured at 2 hrs relative to control. It counts as functional.
Data set [22] relates to Rattus norvegicus. The data set can be described thus: Hypoglycemic activity in 48 hrs fasted Charles River rat at 260 mg/kg, po measured at 4 hrs relative to control. It counts as functional.

Active and inactive are the calls of the source. The calls are words filed in the database; no cut-off is given here.

As for `CC1CCCNC1CCCO.Cl` (centres undefined), the Activity is reported as -15% in data set [1], -3% in data set [2] and -6% in data set [3].
On the same counts, the results for `Cc1cccnc1CCCCO` are -9%, -9% and 0%.
Turning to `Cc1cnc(CO)c(C)c1.Cl`, the Activity in data set [1] is reported as -12%; in data set [2], -17%; in data set [3] it was -1%; in data set [4] it was -9%.
Consider `Cc1cccnc1CCC(C)(C)O.[O-][Cl+3]([O-])([O-])O`, for which the Activity is on record as 6% in [1], -7% in data set [2] and -10% in data set [3].
For `Cc1cccnc1C.Cl`, in that order: 0%, -5% and 8%.
For `Cc1cc2ccccc2nc1CCCO.Cl`, in that order: 16%, -9% and -10%.
On the same counts, the results for `Cc1cccnc1CO.Cl` are -9%, 0% and 3%.
Take `Cc1cccnc1/C=C/C(=O)O`: the Activity in data set [1] was -5%; in data set [2], 4%; in data set [3], 23%.
On the same counts, the results for `OCc1ccccn1` [PICONOL] are 4%, 6% and 2%.
For the compound `COCCCc1ncccc1C`, the Activity in [1] is -15%; in data set [2] it was -14%; in [3], -29%; in data set [4], -52%; in data set [5] it was “Toxic”; in data set [6], “Toxic”.
Turning to `Cc1cnc(CCCO)c(C)c1.Cl`, the Activity in data set [1] was 27%; in data set [2], -39%; in data set [3], -72%; in [5], “Toxic”; in [6], “Toxic”.
Consider `CC(=O)OCCCc1ncccc1C`, for which the Activity in data set [1] is recorded as 21%; in data set [2], -34%; in [3], -73%; in [5], “Toxic”; in data set [6] it was “Toxic”.
For `Cc1cccnc1CCO`, the Activity in [1] is -8%; in data set [2], -14%; in [3], 8%.
As for `CCCCNC(=O)NS(=O)(=O)c1ccc(C)cc1` [TOLBUTAMIDE], the Activity amounted to 28% in [7], 47% in data set [8] and 48% in [9].
On to `OCCCc1ccccn1`, for which the Activity in data set [2] was found to be 9%; in data set [3], 46%; in data set [4] it was 42%.
As for `Cc1cccnc1CC(O)C(=O)O.Cl` (centres undefined), the Activity in data set [1] is given as -9%; in data set [2] it was -5%; in data set [3] it was -1%.
Consider `Cc1ncccc1CCCO.[O-][Cl+3]([O-])([O-])O`, for which the Activity is reported as -4% in [1], -8% in data set [2] and -1% in [3].
For `C[n+]1cccc(CCCO)c1.[I-]`, in that order: -13%, -14% and -12%.
Regarding `Cc1ncccc1CO.Cl`, the Activity in data set [1] is -3%; in [2], 1%; in data set [3], -11%.
On the same counts, the results for `Cc1cccnc1CC(O)C(Cl)(Cl)Cl.Cl` (centres undefined) are -16%, -29% and -16%.
Consider `Cc1cccnc1CCCO`, for which the Activity is -22% in [1]; -18% in [2]; -68% in [3]; -87% in [4]; “Toxic” in data set [5]. Also, in [10], the result was Active. Moreover, in [11], the “fold change (FC)” value is on record as 10.
Turning to `Cc1cccnc1C(=O)O`, the Activity was -8% in data set [12], -9% in data set [13] and -15% in data set [14].
For `Cc1cccnc1CCC(=O)O`, the Activity in data set [1] is given as 5%; in data set [2], -28%; in data set [3] it was -85%; in [4] it was -90%; in data set [15], “Toxic”; in [5], “Toxic”. Besides, the Activity entry in data set [6] is “Toxic”.
In the case of `Cc1ccc[n+](C)c1CCCO.[I-]`, the Activity is on record as -1% in data set [1], 3% in data set [2] and -14% in data set [3].
On the same counts, the results for `OCCCc1ccncc1` are 17%, 14% and 33%.
For `Cc1cccnc1CCCS`, in that order: -9%, -14% and -18%.
For `Cc1ccc[n+]([O-])c1CCCO`, in that order: -6%, -3% and -8%.
For the compound `Cc1cccnc1CC(C)O.Cl` (centres undefined), the Activity is 3% in [1], -3% in data set [2] and -12% in [3].
On to `OCc1ccncc1` [PYRIDINE 4-METHANOL], for which the Activity in data set [1] is recorded as 4%; in data set [2], 0%; in [3] it was -4%.
For `OCCCc1cccnc1`, the Activity in [1] is listed as 3%; in data set [2], -12%; in data set [3] it was -24%. Moreover, the result in data set [16] was Active.
For `OC(Cc1ccccn1)C(Cl)(Cl)Cl` (centres undefined), the figures for the Activity in data set [17], in data set [18] and in data set [19] were 24%, 40% and 101%, respectively.
For the compound `OCc1cccnc1` [NICOTINYL ALCOHOL], the Activity in data set [1] is given as 11%; in data set [2] it was -3%; in data set [3], -19%.
On the same counts, the results for `CC(=O)Cc1ncccc1C` are -12%, -14% and -8%.
`Cc1ccc(CCCO)nc1.[O-][Cl+3]([O-])([O-])O`: the figures for the Activity in data set [20], in data set [21] and in data set [22] were 0%, -1% and 18%, respectively.

Values taken from ChEMBL document CHEMBL3227927, “Synthesis and hypoglycemic activity of pyridyl alcohols” (J Med Chem, 1979).
